Each structure is given as a SMILES string.

T1 sequence (Q9Y233 1-779 isoform Q9Y233-1): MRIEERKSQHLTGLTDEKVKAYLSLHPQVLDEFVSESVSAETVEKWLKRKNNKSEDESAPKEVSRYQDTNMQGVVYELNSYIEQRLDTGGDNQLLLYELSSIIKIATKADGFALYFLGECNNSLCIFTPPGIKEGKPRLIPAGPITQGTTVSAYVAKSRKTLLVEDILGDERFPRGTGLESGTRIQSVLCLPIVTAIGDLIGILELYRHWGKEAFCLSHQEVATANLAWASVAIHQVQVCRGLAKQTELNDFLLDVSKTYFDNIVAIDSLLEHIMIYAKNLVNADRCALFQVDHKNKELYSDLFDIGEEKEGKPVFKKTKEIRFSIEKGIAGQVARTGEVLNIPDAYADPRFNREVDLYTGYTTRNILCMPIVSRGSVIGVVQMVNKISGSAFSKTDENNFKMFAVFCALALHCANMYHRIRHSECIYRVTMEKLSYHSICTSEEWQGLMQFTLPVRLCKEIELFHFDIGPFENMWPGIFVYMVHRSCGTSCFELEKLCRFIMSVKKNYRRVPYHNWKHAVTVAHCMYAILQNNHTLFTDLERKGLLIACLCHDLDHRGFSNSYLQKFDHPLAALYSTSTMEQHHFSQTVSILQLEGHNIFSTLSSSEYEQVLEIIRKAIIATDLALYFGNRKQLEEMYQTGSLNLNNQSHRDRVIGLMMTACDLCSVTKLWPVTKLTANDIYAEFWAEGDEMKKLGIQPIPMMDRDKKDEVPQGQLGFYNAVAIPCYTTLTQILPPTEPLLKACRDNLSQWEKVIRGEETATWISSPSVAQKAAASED

The experiment has as its target T1, PDE10 (Homo sapiens, UniProt Q9Y233).
T1 construct: made in house; host or cells: Sf9 insect cells (baculovirus)
Kind of experiment: PDE10 biochemical assay (two-step Thompson and Appleman method or SPA). Conditions: PDE10 inhibition. On the procedure:
In short, cAMP is spiked with (^3H)cAMP and incubated with PDE10 and various concentrations of a compound of structure (I). After the appropriate incubation time, the reaction is terminated by heating. The mixture is then subjected to treatment with snake venom phosphatase. The phosphatase hydrolyzes any AMP in the mixture, but leaves unreacted cAMP intact. Thus, by separating cAMP from the mixture and determining its concentration (by radiography), the percent of inhibition can be determined. IC50 values can be calculated by performing the experiment at several concentrations using standard graphical means. A detailed description of the actual technique used for IC50 assays as set forth in following Examples.
The phosphodiesterase (PDE) assay was performed using recombinant human PDE 1A3, 2A3, 3 catalytic region, 4 catalytic region, 5 catalytic region, 7A, 8A, 9A2, 10A1 and 11A1 enzymes expressed in a baculoviral system using Sf9 cells. PDE activity was measured using a modification of the two-step method of Thompson and Appleman described above which was adapted for 96 well plate format. […] The final assay volume was 110 μl with assay buffer (10 mM MgCl2; 40 mM Tris.HCl; pH 7.4). Reactions were initiated with enzyme and incubated with (^3H)-substrate and substance for 20 minutes at 30° C. The reaction was terminated by denaturing the enzyme (heating the reaction to 70° C. for 2 minutes). The reaction was then cooled at 4° C. for 10 minutes before the addition of snake venom (Crotalus atrox, 0.2 mg/ml) for 10 minutes at 30° C., thus allowing non-specific hydrolysis of the tritiated substrate. Separation of the remaining unhydrolysed cyclic nucleotide was achieved by a batch binding of the mixture to activated Dowex (200 μl) anion exchange resin. The anion exchange resin bound the charged nucleotides, leaving only hydrolysed (^3H) substrate in the soluble fraction. The soluble fraction (50 μl) was then added to microscint-20 (200 μl) and counted on a Top Count Plate reader. Radioactivity units were plotted against inhibitor concentration and IC50 values obtained using Graph Pad Prism software.
Alternatively, phosphodiesterase activity was measured by scintillation proximity assay (SPA) with [^3H]-cGMP as substrate. Purified PDE10 was diluted and stored in 25 mM Tris-Cl (pH 8.0)/100 mM NaCl/0.05% Tween 20/50% glycerol/3 mM DTT. Assays contained (final concentrations): 50 mM Tris-Cl (pH 7.5)/8.3 mM MgCl2/1.7 mM EGTA/0.5 mg/ml BSA/5% DMSO and 2 ng PDE10 in a final volume of 0.1 mL. Inhibition was evaluated at 8 concentrations in duplicate. Reactions were initiated by addition of enzyme and were terminated after 20 minutes at 30° C. by the addition of 50 μl of SPA beads containing Zn^++. The mixture was shaken, allowed to settle for 3 hours, and counted in a Wallac plate counter. Results (net cpm) were fitted to a four parameter logistic model using Excel Solver®.
The compound `COc1cc(-c2ccc(C(=O)C(OC)c3ccc(-c4nnn(C)n4)cc3)o2)cc(OC)c1Br` (stereo not shown) [Compound 33-1, 1-(5-(4-Bromo-3,5-Dimethoxyphenyl)Furan-2-Yl)-2-Methoxy-2-(4-(2-Methyl-2H-Tetrazol-5-Yl)Phenyl)Ethanone] had an IC50 of no more than 1 µM.

Take `COc1cc(-c2ccc(C(=O)C(OC)c3ccc(-c4csc(C)n4)cc3)o2)cc(OC)c1Br` (stereo not shown) [Compound 35-1, 1-(5-(4-Bromo-3,5-Dimethoxyphenyl)Furan-2-Yl)-2-Methoxy-2-(4-(2-Methylthiazol-4-Yl)Phenyl)Ethanone]: the IC50 was no more than 1 µM.

Turning to `COc1cc(-c2ccc(C(=O)C(OC)c3ccc(-c4cccnc4)cc3)o2)cc(OC)c1Br` (stereo not shown) [Compound 37-1, 1-(5-(4-Bromo-3,5-Dimethoxyphenyl)Furan-2-Yl)-2-Methoxy-2-(4-(Pyridin-3-Yl)Phenyl)Ethanone], the IC50 was no more than 1 µM.

With `CCOC(C(=O)c1ccc(-c2cc(OC)c(Br)c(OC)c2)o1)c1ccc(N2CCOCC2)cc1` (stereo not shown) [Compound 38-1, 1-(5-(4-Bromo-3,5-Dimethoxyphenyl)Furan-2-Yl)-2-Ethoxy-2-(4-Morpholinophenyl)Ethanone], the IC50 was no more than 1 µM.

In turn, `COc1cc(-c2ccc(C(=O)C(OC)c3ccc(-c4nnc(C)o4)cc3)o2)cc(Br)c1OC` (stereo not shown) [Compound 39-1, 1-(5-(3-Bromo-4,5-Dimethoxyphenyl)Furan-2-Yl)-2-Methoxy-2-(4-(5-Methyl-1,3,4-Oxadiazol-2-Yl)Phenyl)Ethanone] showed an IC50 of no more than 1 µM.

In turn, `COc1cc(-c2ccc(C(=O)C(OC)c3ccc(-c4nnc(C)o4)cc3)o2)cc(Cl)c1OC` (stereo not shown) [Compound 40-1, 1-(5-(3-Chloro-4,5-Dimethoxyphenyl)Furan-2-Yl)-2-Methoxy-2-(4-(5-Methyl-1,3,4-Oxadiazol-2-Yl)Phenyl)Ethanone] yielded an IC50 of no more than 1 µM.

Compound `COc1cc(-c2ccc(C(=O)C(OCC3CC3)c3ccc(N4CCOCC4)cc3)o2)cc(OC)c1Br` (stereo not shown) [Compound 41-1, 1-(5-(4-Bromo-3,5-Dimethoxyphenyl)Furan-2-Yl)-2-(Cyclopropylmethoxy)-2-(4-Morpholinophenyl)Ethanone] yielded an IC50 of no more than 1 µM.

Take `COc1ccc(C(OC)C(=O)c2ccc(-c3cc(OC)c(Br)c(OC)c3)o2)cn1` (stereo not shown) [Compound 42-1, 1-(5-(4-Bromo-3,5-Dimethoxyphenyl)Furan-2-Yl)-2-Methoxy-2-(6-Methoxypyridin-3-Yl)Ethanone]: the IC50 is no more than 1 µM.

In the case of `COc1cc(-c2ccc(C(=O)C(OC)c3ccc(CN(C)C)cc3)o2)cc(OC)c1Br` (stereo not shown) [Compound 43-1, 1-(5-(4-Bromo-3,5-Dimethoxyphenyl)Furan-2-Yl)-2-(4-((Dimethylamino)Methyl)Phenyl)-2-Methoxyethanone], the IC50 was no more than 1 µM.

`COc1cc(-c2ccc(C(=O)C(OC)c3ccc(N4CCOCC4)nc3)o2)cc(OC)c1Br` (stereo not shown) [Compound 44-1, 1-(5-(4-Bromo-3,5-Dimethoxyphenyl)Furan-2-Yl)-2-Methoxy-2-(6-Morpholinopyridin-3-Yl)Ethanone] showed an IC50 of no more than 1 µM.

For `COc1cc(-c2ccc(C(=O)C(OC)c3ccc(-c4cnccn4)cc3)o2)cc(OC)c1Br` (stereo not shown) [Compound 45-1, 1-(5-(4-Bromo-3,5-Dimethoxyphenyl)Furan-2-Yl)-2-Methoxy-2-(4-(Pyrazin-2-Yl)Phenyl)Ethanone], the IC50 was no more than 1 µM.

Compound `CCOC(C(=O)c1ccc(-c2cc(OC)c(OC)c(OC)c2)o1)c1ccc(-c2nnc(C)o2)cc1` (stereo not shown) [Compound 46-1, 2-Ethoxy-2-(4-(5-Methyl-1,3,4-Oxadiazol-2-Yl)Phenyl)-1-(5-(3,4,5-Trimethoxyphenyl)Furan-2-Yl)Ethanone] gave an IC50 of no more than 1 µM.

Compound `COc1cc(-c2ccc(C(=O)C(OC)c3ccc(N4CCOCC4)cc3)o2)cc(OC)c1F` (stereo not shown) [Compound 48-1, 1-(5-(4-Fluoro-3,5-Dimethoxyphenyl)Furan-2-Yl)-2-Methoxy-2-(4-Morpholinophenyl)Ethanone] displayed an IC50 of no more than 1 µM.

For the compound `COc1cc(-c2ccc(C(=O)C(OC)c3ccc(N4CCOCC4)cc3)o2)cc(OC)c1Cl` (stereo not shown) [Compound 50-1, 1-(5-(4-Chloro-3,5-Dimethoxyphenyl)Furan-2-Yl)-2-Methoxy-2-(4-Morpholinophenyl)Ethanone], the IC50 was no more than 1 µM.

Compound `COc1ccc(-c2ccn(C(=O)C(OC)c3ccc(F)cc3)n2)cc1OC` (stereo not shown) [Compound 51-1, 1-(3-(3,4-Dimethoxyphenyl)-1H-Pyrazol-1-Yl)-2-(4-Fluorophenyl)-2-Methoxyethanone] came in with an IC50 of no more than 1 µM.

As to `COc1cc(-c2ccn(C(=O)C(OC)c3ccc(N4CCOCC4)cc3)n2)cc(OC)c1Br` (stereo not shown) [Compound 52-1, 1-(3-(4-Bromo-3,5-Dimethoxyphenyl)-1H-Pyrazol-1-Yl)-2-Methoxy-2-(4-Morpholinophenyl)Ethanone], the IC50 was no more than 1 µM.

As for `COc1ccc(-c2ccn(C(=O)C(OC)c3ccc(N4CCOCC4)cc3)n2)cc1OC` (stereo not shown) [Compound 53-1, 1-(3-(3,4-Dimethoxyphenyl)-1H-Pyrazol-1-Yl)-2-Methoxy-2-(4-Morpholinophenyl)Ethanone], the IC50 was no more than 1 µM.

The compound `COc1cc(-c2nc(C(=O)C(OC)c3ccc(N4CCOCC4)cc3)no2)cc(OC)c1Br` (stereo not shown) [Compound 54-1, 1-(5-(4-Bromo-3,5-Dimethoxyphenyl)-1,2,4-Oxadiazol-3-Yl)-2-Methoxy-2-(4-Morpholinophenyl)Ethanone] gave a 50% inhibitory concentration (IC50) of no more than 1 µM.

The compound `COc1cc(-c2nc(C(=O)C(OC)c3ccc(N4CCOCC4)cc3)oc2C)cc(OC)c1Br` (stereo not shown) [Compound 55-1, 1-(4-(4-Bromo-3,5-Dimethoxyphenyl)-5-Methyloxazol-2-Yl)-2-Methoxy-2-(4-Morpholinophenyl)Ethanone] returned an IC50 of no more than 1 µM.

Compound `COc1cc(-c2cnc(C(=O)C(OC)c3ccc(N4CCOCC4)cc3)o2)cc(OC)c1Br` (stereo not shown) [Compound 56-1, 1-(5-(4-Bromo-3,5-Dimethoxyphenyl)Oxazol-2-Yl)-2-Methoxy-2-(4-Morpholinophenyl)Ethanone] yielded an IC50 of no more than 1 µM.

`COc1cc(-c2ccc(C(=O)C(OC)c3ccc(-c4nnc(C)o4)cc3)s2)cc(OC)c1Br` (stereo not shown) [Compound 57-1, 1-(5-(4-Bromo-3,5-Dimethoxyphenyl)Thiophen-2-Yl)-2-Methoxy-2-(4-(5-Methyl-1,3,4-Oxadiazol-2-Yl)Phenyl)Ethanone] displayed a 50% inhibitory concentration (IC50) of no more than 1 µM.

In turn, `COc1cc(-c2ccc(C(=O)C(OC)c3ccc(N4CCOCC4)cc3)s2)cc(OC)c1Br` (stereo not shown) [Compound 59-1, 1-(5-(4-Bromo-3,5-Dimethoxyphenyl)Thiophen-2-Yl)-2-Methoxy-2-(4-Morpholinophenyl)Ethanone] had a concentration for half-maximal inhibition (IC50) of no more than 1 µM.

Compound `COc1cc(-c2ccc(C(=O)C(OC)c3ccc(-c4nnc(C5CC5)o4)cc3)o2)cc(OC)c1OC` (stereo not shown) [Compound 60-1, 2-(4-(5-Cyclopropyl-1,3,4-Oxadiazol-2-Yl)Phenyl)-2-Methoxy-1-(5-(3,4,5-Trimethoxyphenyl)Furan-2-Yl)Ethanone] displayed an IC50 of no more than 1 µM.

The compound `COc1cc(-c2ccc(C(=O)C(OC)c3ccc(-c4nnc(C)o4)cc3)o2)cc(OC)c1F` (stereo not shown) [Compound 62-1, 1-(5-(4-Fluoro-3,5-Dimethoxyphenyl)Furan-2-Yl)-2-Methoxy-2-(4-(5-Methyl-1,3,4-Oxadiazol-2-Yl)Phenyl)Ethanone] came in with a 50% inhibitory concentration (IC50) of no more than 1 µM.

Turning to `CCOC(C(=O)c1ccc(-c2cc(OC)c(Cl)c(OC)c2)o1)c1ccc(N2CCOCC2)cc1` (stereo not shown) [Compound 64-1, 1-(5-(4-Chloro-3,5-Dimethoxyphenyl)Furan-2-Yl)-2-Ethoxy-2-(4-Morpholinophenyl)Ethanone], the IC50 was no more than 1 µM.

Compound `COc1cc(-c2coc(C(=O)C(OC)c3cccc(N4CCOCC4)c3)n2)cc(OC)c1Br` (stereo not shown) [Compound 65-1] registered an IC50 of no more than 1 µM.

The compound `COc1cc(-c2coc(C(=O)C(OC)c3ccc(-n4cncn4)cc3)n2)cc(OC)c1Br` (stereo not shown) [Compound 65-2] returned an IC50 of no more than 1 µM.

In the case of `COc1cc(-c2coc(C(=O)C(OC)c3ccc(OC(F)(F)F)cc3)n2)cc(OC)c1Br` (stereo not shown) [Compound 65-3], the IC50 is no more than 1 µM.

In the case of `COc1cc(-c2coc(C(=O)C(OC)c3ccc(-n4ccnn4)cc3)n2)cc(OC)c1Br` (stereo not shown) [Compound 65-4], the IC50 was no more than 1 µM.

Turning to `COc1cc(-c2coc(C(=O)C(OC)c3ccc(-n4nccn4)cc3)n2)cc(OC)c1Br` (stereo not shown) [Compound 65-5], the IC50 is no more than 1 µM.

Turning to `COc1cc(-c2coc(C(=O)C(OC)c3ccc(-n4cc(C)cn4)cc3)n2)cc(OC)c1Br` (stereo not shown) [Compound 65-6], the IC50 was no more than 1 µM.

In general, IC50 refers to the concentration needed to halve the response being measured.

For the origin of these results see patent US10106516B2, “PDE10 inhibitors and related compositions and methods” (Omeros Corporation, priority 2010, dated 2018).
